# Assay results: PubChem BioAssay (NCI)
#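 Test compounds were applied to cells in 96-well plates for 48 hours at 5 doses. Abbreviation: GI50, concentration required for 50% inhibition of growth. TGI is the concentration that stops growth completely.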
# What was measured:
# Test in all cases: growth of human tumour cells (NCI), 48 h
# [1] = test system: CCRF-CEM leukemia
# [2] = test system: COLO 205 colon
# [3] = test system: HCC-2998 colon
# [4] = test system: HOP-62 NSCLC
# [5] = test system: KM12 colon
# [6] = test system: NCI-H522 lung
# [7] = test system: OVCAR-5 ovarian
# [8] = test system: SK-MEL-5 melanoma
# [9] = test system: SNB-19 CNS
# [10] = test system: SNB-75 CNS
SMILES,GI50 [1] [µM],TGI [1] [µM],GI50 [2] [µM],TGI [2] [µM],GI50 [3] [µM],TGI [3] [µM],GI50 [4] [µM],TGI [4] [µM],GI50 [5] [µM],TGI [5] [µM],GI50 [6] [µM],TGI [6] [µM],GI50 [7] [µM],TGI [7] [µM],GI50 [8] [µM],TGI [8] [µM],GI50 [9] [µM],TGI [9] [µM],GI50 [10] [µM],TGI [10] [µM]
COc1cc2nc(N3CCCC3)nc(NCC3CCCCC3)c2cc1OC,1.09,3.5,0.223,0.499,0.444,1.62,1.56,3.2,1.63,3.13,1.56,3.29,1.59,2.96,1.35,2.68,1.59,2.99,1.47,2.81
CN(C)CCCN1c2ccccc2CCc2ccc(Cl)cc21,3.07,12,1.91,3.53,1.8,3.75,10.8,23.3,3.77,13.6,5.15,18.1,4.07,16.2,1.54,2.9,6.42,21.5,1.7,8.77
C=C1COC(/C=C(\C)CC/C=C(\C)CCl)C1 (stereo not given),,> 100,,> 100,,> 100,,> 100,,> 100,,> 100,,> 100,,> 100,,> 100,,> 100
N#CC(C(=O)CCC(=O)Nc1cccc(Cl)c1)c1ccccc1 (stereo not given),,> 100,,> 100,,> 100,,> 100,,> 100,,> 100,,> 100,,> 100,,> 100,,> 100
CC1=C(CCC(C)N(C)Cc2ccc(OCCCN3CCCC3)cc2)C(C)(C)CCC1 (stereo not given),2.66,11.6,1.56,3.42,1.5,4,3.54,17.5,4.6,17.7,2.33,4.99,3.2,11.1,1.75,3.15,3.61,12,1.58,3.92
COc1ccc(C(OCC2OC(n3ccc(NC(=O)c4ccccc4)nc3=O)C(O)C2O)(c2ccccc2)c2ccccc2)cc1 (stereo not given),,4.39,,3.7,,12.6,,4,,38.5,,5.61,,3.79,,3.32,,9,,22
Cc1ccc(C2=NOC3=c4ccccc4=CSC3=C2c2ccc([N+](=O)[O-])cc2)cc1,39.3,> 100,35.8,> 100,24.4,> 100,13.6,55.8,61.1,> 100,12.5,68.5,25.2,> 100,11.4,37.6,17.6,63.7,24.5,81.4
